Experimental data taken from patent EP4567040A1, “CRYSTAL FORM OF FUSED TRICYCLIC DERIVATIVE AND PREPARATION METHOD” (Jiangsu Hengrui Pharmaceuticals Co., Ltd., priority 2022, dated 2024).

Experiments:
Format in all cases: physicochemical
[1] = Influencing factor stability study of crystal forms; details: for physical stability / chemical stability: 30-day influencing factor experiments; for chemical stability: high temperature and high humidity conditions
Experimental: Example 50. Influencing Factor Stability Study of Crystal Forms Free-state samples were spread out, left to stand in open flasks, and subjected to 30-day stability tests under light exposure (4500 Lux), high temperature (40 °C and 60 °C), and high humidity (RH 75% and RH 92.5%) conditions.

[2] = Long-term/accelerated stability of crystal forms; details: for Purity%: sealed in aluminum foil bag
Experimental: Free-state samples were sealed in aluminum foil bags and left to stand under 25 °C/60% RH and 40 °C/75% RH conditions to test their stability.

[3] = Hygroscopicity study of free-state crystal forms (DVS); details: for 0.0% RH-80.0% RH (hygroscopicity, mass change): DVS, 25 °C; for Crystal form: crystal form after DVS test
Experimental: Testing was performed using Surface Measurement Systems advantage 2, at 25 °C, with the humidity changing from 50% -95%-0%-95%-50%RH, in steps of 10%. The criterion was that each gradient mass change dM/dT is less than 0.002%, TMAX 360 min, two cycles.
Surface Measurement Systems intrinsic DVS was adopted. At 25 °C, the crystal forms were tested in a humidity range of 0%-95%, with increments of 10%. The criterion was that each gradient mass change dM/dT is less than 0.002%, TMAX 360 min, two cycles.

[4] = Light exposure (4500 Lux), 7 days, open flask
[5] = Light exposure (4500 Lux), 14 days, open flask
[6] = Light exposure (4500 Lux), 30 days, open flask
[7] = 25 °C/60% RH, after standing up to 6 months
[8] = 40 °C/75% RH, after standing up to 6 months
[9] = long-term accelerated conditions for 6 months

| Compound | physical stability [1] | chemical stability [1] | Purity% ([2]; 25 °C/60% RH, 1 month) | Purity% ([2]; 25 °C/60% RH, 2 months) | Purity% ([2]; 25 °C/60% RH, 3 months) | Purity% ([2]; 25 °C/60% RH, 14 days) | Purity% ([2]; 25 °C/60% RH, Initial) | Purity% ([2]; 40 °C/75% RH, 1 month) | Purity% ([2]; 40 °C/75% RH, 2 months) | Purity% ([2]; 40 °C/75% RH, 3 months) | Purity% ([2]; 40 °C/75% RH, 14 days) | Purity% ([2]; 40 °C/75% RH, Initial) | 0.0% RH-80.0% RH (hygroscopicity, mass change) [3] | Crystal form [3] | Purity% ([1]; 40 °C, 7 days, open flask) | Purity% ([2]; 25 °C/60% RH, 6 months) | Crystal form [2, 7] | Purity% ([2]; 40 °C/75% RH, 6 months) | Crystal form [2, 8] | physical stability and chemical stability [2, 9] | other results |
| --- | --- | --- | --- | --- | --- | --- | --- | --- | --- | --- | --- | --- | --- | --- | --- | --- | --- | --- | --- | --- | --- |
| C[C@H]1COc2c(-c3nc(N[C@@H]4CCOC[C@H]4O)ncc3Cl)cc(F)c3nc(C(C)(C)O)n1c23 [Crystal form D, (3S,4R)-4-((5-chloro-4-((S)-8-fluoro-2-(2-hydroxypropan-2-yl)-3-methyl-3,4-dihydro-5-oxa-1,2a-diazaacenaphthylen-6-yl)pyrimidin-2-yl)amino)tetrahydro-2H-pyran-3-ol] | good physical stability | good chemical stability | 99.9% | 99.9% | 99.9% | 99.9% | 99.9% | 99.9% | 99.9% | 99.9% | 99.9% | 99.9% | 0.46% | No change | 99.9% | 99.9% | No change | 99.9% | No change | good physical stability and chemical stability | Purity% ([1]; 40 °C, 14 days, open flask): 99.9%; Purity% ([1]; 40 °C, 30 days, open flask): 99.9%; Purity% ([1]; 60 °C, 7 days, open flask): 99.9%; Purity% ([1]; 60 °C, 14 days, open flask): 99.9%; Purity% ([1]; 60 °C, 30 days, open flask): 99.9%; Purity% ([1]; 75% RH, 7 days, open flask): 99.9%; Purity% ([1]; 75% RH, 14 days, open flask): 99.9%; Purity% ([1]; 75% RH, 30 days, open flask): 99.9%; Purity% ([1]; 92.5% RH, 7 days, open flask): 99.9%; Purity% ([1]; 92.5% RH, 14 days, open flask): 99.9%; Purity% ([1]; 92.5% RH, 30 days, open flask): 99.9%; Purity% ([1]; Initial, 0 days): 99.9%; Purity% [1, 4]: 96.0%; Purity% [1, 5]: 94.6%; Purity% [1, 6]: 92.8% |
| C[C@H]1COc2c(-c3nc(N[C@@H]4CCOC[C@H]4O)ncc3Cl)cc(F)c3nc(C(C)(C)O)n1c23 [Crystal form G, (3S,4R)-4-((5-chloro-4-((S)-8-fluoro-2-(2-hydroxypropan-2-yl)-3-methyl-3,4-dihydro-5-oxa-1,2a-diazaacenaphthylen-6-yl)pyrimidin-2-yl)amino)tetrahydro-2H-pyran-3-ol] | good physical stability | good chemical stability | 99.9% | 99.9% | 99.9% | 99.9% | 99.9% | 99.9% | 99.9% | 99.9% | 99.9% | 99.9% | 2.46% | No change |  | 99.9% | No change | 99.9% | No change | good physical stability and chemical stability |  |
| C[C@H]1COc2c(-c3nc(N[C@@H]4CCOC[C@H]4O)ncc3Cl)cc(F)c3nc(C(C)(C)O)n1c23 [Crystal form F, (3S,4R)-4-((5-chloro-4-((S)-8-fluoro-2-(2-hydroxypropan-2-yl)-3-methyl-3,4-dihydro-5-oxa-1,2a-diazaacenaphthylen-6-yl)pyrimidin-2-yl)amino)tetrahydro-2H-pyran-3-ol] | good physical stability | good chemical stability | 99.9% | 99.9% | 99.9% | 99.9% | 99.9% | 99.9% | 99.9% | 99.9% | 99.9% | 99.9% | 1.10% | No change |  | 99.9% | No change | 99.9% | No change | good physical stability and chemical stability |  |

The next lines start with results.

| physical stability [1] | chemical stability [1] | Purity% ([2]; 25 °C/60% RH, 1 month) | Purity% ([2]; 25 °C/60% RH, 2 months) | Purity% ([2]; 25 °C/60% RH, 3 months) | Purity% ([2]; 25 °C/60% RH, 14 days) | Purity% ([2]; 25 °C/60% RH, Initial) | Purity% ([2]; 40 °C/75% RH, 1 month) | Purity% ([2]; 40 °C/75% RH, 2 months) | Purity% ([2]; 40 °C/75% RH, 3 months) | Purity% ([2]; 40 °C/75% RH, 14 days) | Purity% ([2]; 40 °C/75% RH, Initial) | 0.0% RH-80.0% RH (hygroscopicity, mass change) [3] | Crystal form [3] | Purity% ([1]; 40 °C, 7 days, open flask) | Purity% ([2]; 25 °C/60% RH, 6 months) | Crystal form [2, 7] | Purity% ([2]; 40 °C/75% RH, 6 months) | Crystal form [2, 8] | Compound | physical stability and chemical stability [2, 9] | other results |
| --- | --- | --- | --- | --- | --- | --- | --- | --- | --- | --- | --- | --- | --- | --- | --- | --- | --- | --- | --- | --- | --- |
| good physical stability | good chemical stability | 99.95% | 99.95% | 99.95% | 99.95% | 99.95% | 99.95% | 99.95% | 99.95% | 99.95% | 99.95% | 0.28% | No change |  |  |  |  |  | C[C@H]1COc2c(-c3nc(N[C@@H]4CCOC[C@H]4O)ncc3Cl)cc(F)c3nc(C(C)(C)O)n1c23 [Crystal form H, (3S,4R)-4-((5-chloro-4-((S)-8-fluoro-2-(2-hydroxypropan-2-yl)-3-methyl-3,4-dihydro-5-oxa-1,2a-diazaacenaphthylen-6-yl)pyrimidin-2-yl)amino)tetrahydro-2H-pyran-3-ol] |  | Crystal form ([2]; 25 °C/60% RH, after standing up to 3 months): No change; Crystal form ([2]; 40 °C/75% RH, after standing up to 3 months): No change; physical stability and chemical stability ([2]; long-term accelerated conditions for 3 months): good physical stability and chemical stability |
| good physical stability | good chemical stability | 99.0% | 98.9% |  | 99.0% | 99.0% | 99.0% | 98.9% |  | 99.0% | 99.0% |  |  |  | 98.8% | No change | 98.8% | Deliquescence | C[C@H]1COc2c(-c3nc(N[C@@H]4CCOC[C@H]4O)ncc3Cl)cc(F)c3nc(C(C)(C)O)n1c23 [Free-state amorphous form, (3S,4R)-4-((5-chloro-4-((S)-8-fluoro-2-(2-hydroxypropan-2-yl)-3-methyl-3,4-dihydro-5-oxa-1,2a-diazaacenaphthylen-6-yl)pyrimidin-2-yl)amino)tetrahydro-2H-pyran-3-ol] |  | Crystal form ([1]; 40 °C, 7 days, open flask): No change; Crystal form ([1]; 40 °C, 14 days, open flask): No change; Crystal form ([1]; 40 °C, 30 days, open flask): No change; Crystal form ([1]; 60 °C, 7 days, open flask): No change; Crystal form ([1]; 60 °C, 14 days, open flask): No change; Crystal form ([1]; 60 °C, 30 days, open flask): No change; Crystal form ([1]; 75% RH, 7 days, open flask): No change; Crystal form ([1]; 75% RH, 14 days, open flask): No change; Crystal form ([1]; 75% RH, 30 days, open flask): No change; Crystal form ([1]; 92.5% RH, 7 days, open flask): No change; Crystal form ([1]; 92.5% RH, 14 days, open flask): No change; Crystal form ([1]; 92.5% RH, 30 days, open flask): No change; Crystal form ([1]; Initial, 0 days): Free-state amorphous form; Crystal form [1, 4]: No change; Crystal form [1, 5]: No change; Crystal form [1, 6]: No change; deliquescence ([2]; accelerated conditions): deliquescence; physical stability and chemical stability ([2]; under other conditions (than those giving deliquescence)): good physical stability and chemical stability |
| good physical stability | good chemical stability | 99.9% | 99.9% | 99.9% | 99.9% | 99.9% | 99.9% | 99.9% | 99.9% | 99.9% | 99.9% | 3.45% | No change | 99.9% | 99.9% | No change | 99.9% | No change | C[C@H]1COc2c(-c3nc(N[C@@H]4CCOC[C@H]4O)ncc3Cl)cc(F)c3nc(C(C)(C)O)n1c23 [Crystal form E, (3S,4R)-4-((5-chloro-4-((S)-8-fluoro-2-(2-hydroxypropan-2-yl)-3-methyl-3,4-dihydro-5-oxa-1,2a-diazaacenaphthylen-6-yl)pyrimidin-2-yl)amino)tetrahydro-2H-pyran-3-ol] | good physical stability and chemical stability | Purity% ([1]; 40 °C, 14 days, open flask): 99.8%; Purity% ([1]; 40 °C, 30 days, open flask): 99.8%; Purity% ([1]; 60 °C, 7 days, open flask): 99.9%; Purity% ([1]; 60 °C, 14 days, open flask): 99.9%; Purity% ([1]; 60 °C, 30 days, open flask): 99.9%; Purity% ([1]; 75% RH, 7 days, open flask): 99.9%; Purity% ([1]; 75% RH, 14 days, open flask): 99.8%; Purity% ([1]; 75% RH, 30 days, open flask): 99.8%; Purity% ([1]; 92.5% RH, 7 days, open flask): 99.9%; Purity% ([1]; 92.5% RH, 14 days, open flask): 99.8%; Purity% ([1]; 92.5% RH, 30 days, open flask): 99.8%; Purity% ([1]; Initial, 0 days): 99.9%; Purity% [1, 4]: 99.6%; Purity% [1, 5]: 99.3%; Purity% [1, 6]: 98.7% |
